According to the supplement of paper PMC4862054:

Assays:
Details in all cases: incubation time: 72 h
BT-549 = assay: normalised viability (% of control), CellTiter-Blue; higher = more viable cells (about 100 = DMSO control)
Method in brief: (§1)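 Vehicle (100) and a positive kill control (0) anchored the normalisation of each plate, and Z'-factor was used for quality control. Breast cancer cell lines in 20 µl suspension were incubated 72 h over compound in 5 µl medium in 384-well plates, followed by CellTiter-Blue at 560/590 nm. The value is normalised viability at a single listed concentration of the series.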

CAL-120 = assay: as above
Method in brief: as §1

HCC1143 = assay: as above
Method in brief: as §1

HCC1937 = assay: as above
Method in brief: as §1

HDQ-P1 = assay: as above
Method in brief: as §1

MDA-MB-436 = assay: as above
Method in brief: as §1

MDA-MB-453 = assay: drug sensitivity score (DSS), CellTiter-Blue viability (DSS (AUC-based score)); higher = stronger viability inhibition; extreme values may be limits of the assay
Experimental: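 DSRT with the CellTiter-Blue (resazurin reduction) viability readout, fluorescence 560/590 nm, 72 h incubation. Plates were normalised to DMSO and benzethonium chloride controls. DSS is computed from the area under the fitted dose-response curve (5 or 9 concentrations).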

CN(C)/N=N/c1[nH]cnc1C(N)=O [Dacarbazine]
normalised viability [%]
Details | BT-549 | CAL-120 | HCC1143 | HCC1937 | HDQ-P1 | MDA-MB-436
3 nM | – | – | – | – | 107 | –
10 nM | 103 | 88.2 | 76.3 | 98 | – | 100
30 nM | – | – | – | – | 100 | –
100 nM | – | – | – | – | 110 | –
1000 nM | 89.2 | 83.8 | 106 | 87.3 | – | 78.7
10000 nM | 106 | 79.5 | 84.2 | 98.5 | – | 93.8

Details | drug sensitivity score
MDA-MB-453 | 0

Cc1ccc(-n2nc(C(C)(C)C)cc2NC(=O)Nc2ccc(OCCN3CCOCC3)c3ccccc23)cc1 [Doramapimod]
normalised viability [%]
Details | BT-549 | CAL-120 | HCC1143 | HCC1937 | HDQ-P1 | MDA-MB-436
3 nM | – | – | – | – | 88.8 | –
10 nM | 98.1 | 95.4 | 94.2 | 45.3 | – | 84.4
30 nM | – | – | – | – | 78 | –
100 nM | – | – | – | – | 82.4 | –
1000 nM | 104 | 81.2 | 92.1 | 90.2 | – | 33.9
10000 nM | 84.7 | 95.8 | 90.3 | 97.9 | – | 71.5

Details | drug sensitivity score
MDA-MB-453 | 0

C#Cc1cccc(Nc2ncnc3cc(OCCOC)c(OCCOC)cc23)c1 [Erlotinib]
normalised viability [%]
Details | BT-549 | CAL-120 | HCC1143 | HCC1937 | HDQ-P1 | MDA-MB-436
3 nM | – | – | – | – | 108 | –
10 nM | 117 | 91.4 | 105 | 95 | – | 108
30 nM | – | – | – | – | 94 | –
100 nM | – | – | – | – | 85 | –
1000 nM | 106 | 95.1 | 90.7 | 80.2 | – | 83.9
10000 nM | 66.9 | 50.1 | 68.8 | 63.6 | – | 74

Details | drug sensitivity score
MDA-MB-453 | 2.55

COc1cc([C@@H]2c3cc4c(cc3[C@@H](O[C@@H]3O[C@@H]5CO[C@@H](C)O[C@H]5[C@H](O)[C@H]3O)[C@H]3COC(=O)[C@H]23)OCO4)cc(OC)c1O [Etoposide]
normalised viability [%]
Details | BT-549 | CAL-120 | HCC1143 | HCC1937 | HDQ-P1 | MDA-MB-436
3 nM | – | – | – | – | 90.8 | –
10 nM | 84.9 | 92.5 | 85.7 | 78.5 | – | 99.8
30 nM | – | – | – | – | 91 | –
100 nM | – | – | – | – | 33.6 | –
1000 nM | 56 | 73.6 | 66.6 | 64.9 | – | 84.1
10000 nM | 46.7 | 59.1 | 47.3 | 38.9 | – | 55.2

Details | drug sensitivity score
MDA-MB-453 | 0

C[C@]12CC[C@@H]3c4ccc(O)cc4C[C@@H](CCCCCCCCC[S+]([O-])CCCC(F)(F)C(F)(F)F)[C@H]3[C@@H]1CC[C@@H]2O (stereo partly specified) [Fulvestrant]
normalised viability [%]
Details | BT-549 | CAL-120 | HCC1143 | HCC1937 | HDQ-P1 | MDA-MB-436
3 nM | – | – | – | – | 83.7 | –
10 nM | 74.7 | 79.2 | 76.6 | 88.3 | – | 94.4
30 nM | – | – | – | – | 92.2 | –
100 nM | – | – | – | – | 94 | –
1000 nM | 86.5 | 90.7 | 81.5 | 85.5 | – | 97.5
10000 nM | 74.8 | 87.6 | 78.1 | 88.3 | – | 90.6

Details | drug sensitivity score
MDA-MB-453 | 0

O=P1(NCCCl)OCCCN1CCCl (stereo unspecified) [Ifosfamide]
normalised viability [%]
Details | BT-549 | CAL-120 | HCC1143 | HCC1937 | HDQ-P1 | MDA-MB-436
3 nM | – | – | – | – | 94 | –
10 nM | 79.4 | 88.7 | 80.1 | 84 | – | 96.6
30 nM | – | – | – | – | 93.9 | –
100 nM | – | – | – | – | 103 | –
1000 nM | 90.8 | 99.3 | 82.4 | 74.6 | – | 109
10000 nM | 96.7 | 85.2 | 91.1 | 97.6 | – | 102

Details | drug sensitivity score
MDA-MB-453 | 0

CC(C)Cn1cnc2c(N)nc3ccccc3c21 [Imiquimod]
normalised viability [%]
Details | BT-549 | CAL-120 | HCC1143 | HCC1937 | HDQ-P1 | MDA-MB-436
3 nM | – | – | – | – | 91.7 | –
10 nM | 94.5 | 97.9 | 96.5 | 86.2 | – | 94.2
30 nM | – | – | – | – | 92 | –
100 nM | – | – | – | – | 96.6 | –
1000 nM | 103 | 97.2 | 99.9 | 82.5 | – | 92.3
10000 nM | 78.7 | 105 | 94.1 | 88.5 | – | 96.6

Details | drug sensitivity score
MDA-MB-453 | 0.443

CC1(C)NC(=O)N(c2ccc([N+](=O)[O-])c(C(F)(F)F)c2)C1=O [Nilutamide]
normalised viability [%]
Details | BT-549 | CAL-120 | HCC1143 | HCC1937 | HDQ-P1 | MDA-MB-436
3 nM | – | – | – | – | 124 | –
10 nM | 97.2 | 95.6 | 89.3 | 105 | – | 113
30 nM | – | – | – | – | 120 | –
100 nM | – | – | – | – | 112 | –
1000 nM | 85.5 | 90.1 | 113 | 87.3 | – | 110
10000 nM | 97.2 | 116 | 94 | 94.7 | – | 102

Details | drug sensitivity score
MDA-MB-453 | 0

Cc1ccc(C(=O)Nc2ccc(CN3CCN(C)CC3)c(C(F)(F)F)c2)cc1C#Cc1cnc2cccnn12 [Ponatinib]
Details | normalised viability [%]
BT-549, 1 nM | 107
BT-549, 100 nM | 120
BT-549, 1000 nM | 49.3
CAL-120, 1 nM | 95.3
CAL-120, 100 nM | 85.4
CAL-120, 1000 nM | 13.8
HCC1143, 100 nM | 113
HCC1143, 1000 nM | 98.8
HCC1937, 1 nM | 78.3
HCC1937, 100 nM | 115
HDQ-P1, 0.3 nM | 102
HDQ-P1, 3 nM | 126
HDQ-P1, 10 nM | 115
MDA-MB-436, 1 nM | 106
MDA-MB-436, 100 nM | 91.5
MDA-MB-436, 1000 nM | 90.5

Details | drug sensitivity score
MDA-MB-453 | 5.67

Cn1c(Nc2ccc(C(F)(F)F)cc2)nc2cc(Oc3ccnc(-c4ncc(C(F)(F)F)[nH]4)c3)ccc21 [RAF265]
normalised viability [%]
Details | BT-549 | CAL-120 | HCC1143 | HCC1937 | HDQ-P1 | MDA-MB-436
0.3 nM | – | – | – | – | 95.3 | –
1 nM | 87.3 | 88.5 | 90.1 | 103 | – | 120
3 nM | – | – | – | – | 94.6 | –
10 nM | – | – | – | – | 79.7 | –
100 nM | 80.8 | 64.5 | 78 | 78.7 | – | 79.6
1000 nM | 78.5 | 51.3 | 72.5 | 62 | – | 83.6

Details | drug sensitivity score
MDA-MB-453 | 0

CNCc1ccc(-c2[nH]c3cc(F)cc4c3c2CCNC4=O)cc1 [Rucaparib]
normalised viability [%]
Details | BT-549 | CAL-120 | HCC1143 | HCC1937 | HDQ-P1 | MDA-MB-436
3 nM | – | – | – | – | 87 | –
10 nM | 100 | 77.4 | 84.3 | 55.9 | – | 103
30 nM | – | – | – | – | 88 | –
100 nM | – | – | – | – | 88.2 | –
1000 nM | 107 | 81 | 94.2 | 72.2 | – | 62.6
10000 nM | 93.8 | 76.8 | 89.9 | 52.7 | – | 98.2

Details | drug sensitivity score
MDA-MB-453 | 2.23

N[C@@H](CSC(c1ccccc1)(c1ccccc1)c1ccccc1)C(=O)O [S-trityl-L-cysteine]
normalised viability [%]
Details | BT-549 | CAL-120 | HCC1143 | HCC1937 | HDQ-P1 | MDA-MB-436
12 nM | – | – | – | – | 94.4 | –
40 nM | 83.3 | 110 | 134 | 98.7 | – | 90.2
120 nM | – | – | – | – | 92.5 | –
400 nM | – | – | – | – | 110 | –
4000 nM | 92.2 | 42.4 | 113 | 24.8 | – | 78.6
40000 nM | 24 | 35.2 | 58.6 | 22.6 | – | 58.2

Details | drug sensitivity score
MDA-MB-453 | 0
